{"source": "patent US8193364B2", "about": "“Insecticidal N-substituted (6-haloalkylpyridin-3-yl)-alkyl sulfoximines” (Dow AgroSciences, LLC., priority 2006, dated 2012)", "assay_type_in_all_cases": "in vivo", "key": {"[1]": {"system": "Brown Planthopper (Nilaparvata lugens)", "assay": "Brown planthopper root-uptake systemic assay on rice", "experimental": "A foliar spray assay and a root-uptake systemic assay were performed on both brown planthopper and green leafhopper. Four-week-old rice seedlings were submerged in 3-cm depth of water in the bottom portion (high 5 cm, diameter 3 cm) of a 2-part glass cylinder (high 18 cm, diameter 3 cm). A metal screen was used to hold the seedlings within the bottom portion. Scotch tape was used to bind the two portions of the cylinder after setting up the seedlings. A metal cap was used to cover the cylinder. There were 4 cylinders for each treatment. The test compound was dissolved in acetone to make a 10,000 ppm stock solution. For the foliar spray assay, this stock solution was diluted with water to make 10, 2.5, 0.31, 0.08 and 0.02 ppm test solutions. A volume of 0.5 ml of a test solution or solvent blank as check was sprayed into the glass cylinder. For systemic test, the stock solution was incorporated at final test concentrations of 10, 2.5, 0.31, 0.08 and 0.02 ppm in the water in which rice seedlings were submerged. In both foliar spray and systemic tests, five laboratory-reared 3rd instar nymphs of brown planthopper or green leafhopper were introduced into each cylinder 3 hr after insecticide application. The treated test units were kept in a growth chamber with conditions set as followings: Temperature 28±0.5° C.; Relative humidity 70±0.5%; Photoperiod […]."}, "[2]": {"system": "Cotton Aphid (Aphis gossypii)", "assay": "Cotton aphid foliar spray assay on squash", "conditions": "72 h, read-out: % Control of cotton aphid on squash (foliar spray)", "experimental": "Squash with fully expanded cotyledon leaves were trimmed to one cotyledon per plant and infested with cotton aphid (wingless adult and nymph) 1 day prior to chemical application. Each plant was examined before chemical application to ensure proper infestation (ca. 30-70 aphids per plant). Compounds (2 mg) were dissolved in 2 ml of acetone:methanol (1:1) solvent, forming stock solutions of 1000 ppm. The stock solutions were then diluted with a diluent consisting 80 parts of 0.025% Tween 20 in H2O and 20 parts of acetone:methanol (1:1). A hand-held Devilbiss sprayer was used to apply the test solutions until runoff to both sides of the squash cotyledon leaves. Four plants (4 replications) were used for each concentration of each compound. Reference plants (solvent check) were sprayed with the diluent only. Treated plants were held in a holding room for 3 days at approximately 23° C. and 40% RH before the number of live aphids on each plant was recorded. Insecticidal activity was measured by Corrected % Control using Abbott's correction formula and presented in Table 1: Corrected % Control=100*(X−Y)/X • where X=No. of live aphids on solvent check plants • Y=No. of live aphids on treated plants"}, "[3]": {"system": "Green Peach Aphid (Myzus persicae)", "assay": "Green peach aphid foliar spray assay on cabbage", "conditions": "72 h, read-out: % Control at ppm, foliar spray, green peach aphid on cabbage", "experimental": "Cabbage seedlings grown in 3-inch pots, with 2-3 small (3-5 cm) true leaves, were used as test substrate. The seedlings were infested with 20-50 green peach aphids (wingless adult and nymph) 2-3 days prior to chemical application. Four seedlings were used for each treatment. Compounds (2 mg) were dissolved in 2 ml of acetone:methanol (1:1) solvent, forming stock solutions of 1000 ppm. The stock solutions were then diluted with a diluent consisting 80 parts of 0.025% Tween 20 in […] and 20 parts of acetone:methanol (1:1). A hand-held Devilbiss sprayer was used for spraying the test solutions to both sides of cabbage leaves until runoff. Reference plants (solvent check) were sprayed with the diluent only. Treated plants were held in a holding room for three days at approximately 23° C. and 40% RH prior to grading. Evaluation was conducted by counting the number of live aphids per plant under a microscope. Insecticidal activity was measured by using Abbott's correction formula: Corrected % Control=100*(X−Y)/X • where X=No. of live aphids on solvent check plants • Y=No. of live aphids on treated plants The Corrected % Control values from assays are given in Table 2."}, "[4]": {"system": "Eastern Subterranean Termite (Reticulitermes flavipes)", "assay": "Eastern subterranean termite filter paper assay", "experimental": "Activity of Compound 2 was evaluated for its activity on Eastern subterranean termite. Technical material of the test compound was formulated in acetone on a wt/wt basis to deliver 1000, 500, 200, 50, 12.5, 3.12 and 0.78 ppm to 42.5 mm Whatman No. 1 filter papers per 200 ul of pipetted solution. Each test concentration was applied to six filter papers (6 reps). Six acetone-only control units and six DI water-only control units were also prepared. The filter papers were dried overnight in the fume hood before they were placed into 60×15 mm Fisher Brand plastic Petri dishes. A volume of 200 ul DI water was pipetted onto each filter paper at the time of test set-up, just prior to infesting with termites. Ten worker termites were added to each Petri dish and covered. The infested Petri dishes were put in the laboratory Conviron at 28° C. and 60% RH. Termite mortality was recorded at 1, 2, 4, 7, and 10 days after infestation (DAI). Throughout the duration of the test, an average of 150 ul of DI water was added daily to the filter papers to retain moisture."}}, "data": [{"smiles": "CC(c1ccc(C(F)(F)F)nc1)S(C)(=O)=NC#N", "note": "(centres unmarked) [Compound 2, [1-(6-trifluoromethylpyridin-3-yl)ethyl](methyl)-oxido-λ^4-sulfanylidenecyanamide]", "values": [{"measurement": "% Control at ppm against brown planthopper", "setting": "[1]; 0.02 ppm in water", "value": "F (Less than 50)"}, {"measurement": "% Control at ppm against brown planthopper", "setting": "[1]; 0.08 ppm in water", "value": "C (70-79)"}, {"measurement": "% Control at ppm against brown planthopper", "setting": "[1]; 0.31 ppm in water", "value": "A (90-100)"}, {"measurement": "% Control at ppm against brown planthopper", "setting": "[1]; 2.5 ppm in water", "value": "A (90-100)"}, {"measurement": "% Control at ppm against brown planthopper", "setting": "[1]; 10 ppm in water", "value": "A (90-100)"}, {"measurement": "pest or weed control at 0.049 ppm", "setting": "[2]", "value": "90 to 100", "unit": "%"}, {"measurement": "pest or weed control at 0.195 ppm", "setting": "[2]", "value": "90 to 100", "unit": "%"}, {"measurement": "pest or weed control at 0.781 ppm", "setting": "[2]", "value": "90 to 100", "unit": "%"}, {"measurement": "pest or weed control at 3.13 ppm", "setting": "[2]", "value": "90 to 100", "unit": "%"}, {"measurement": "pest or weed control at 0.195 ppm", "setting": "[3]", "value": "80 to 89", "unit": "%"}, {"measurement": "pest or weed control at 0.781 ppm", "setting": "[3]", "value": "90 to 100", "unit": "%"}, {"measurement": "pest or weed control at 3.125 ppm", "setting": "[3]", "value": "90 to 100", "unit": "%"}, {"measurement": "mortality at 0.78 ppm", "setting": "[4]; 1 DAI", "value": 7, "unit": "%"}, {"measurement": "mortality at 0.78 ppm", "setting": "[4]; 2 DAI", "value": 17, "unit": "%"}, {"measurement": "mortality at 0.78 ppm", "setting": "[4]; 4 DAI", "value": 58, "unit": "%"}, {"measurement": "mortality at 0.78 ppm", "setting": "[4]; 7 DAI", "value": 73, "unit": "%"}, {"measurement": "mortality at 0.78 ppm", "setting": "[4]; 10 DAI", "value": 80, "unit": "%"}, {"measurement": "mortality at 3.13 ppm", "setting": "[4]; 1 DAI", "value": 25, "unit": "%"}, {"measurement": "mortality at 3.13 ppm", "setting": "[4]; 2 DAI", "value": 48, "unit": "%"}, {"measurement": "mortality at 3.13 ppm", "setting": "[4]; 4 DAI", "value": 67, "unit": "%"}, {"measurement": "mortality at 3.13 ppm", "setting": "[4]; 7 DAI", "value": 83, "unit": "%"}, {"measurement": "mortality at 3.13 ppm", "setting": "[4]; 10 DAI", "value": 87, "unit": "%"}, {"measurement": "mortality at 12.5 ppm", "setting": "[4]; 1 DAI", "value": 48, "unit": "%"}, {"measurement": "mortality at 12.5 ppm", "setting": "[4]; 2 DAI", "value": 67, "unit": "%"}, {"measurement": "mortality at 12.5 ppm", "setting": "[4]; 4 DAI", "value": 90, "unit": "%"}, {"measurement": "mortality at 12.5 ppm", "setting": "[4]; 7 DAI", "value": 100, "unit": "%"}, {"measurement": "mortality at 12.5 ppm", "setting": "[4]; 10 DAI", "value": 100, "unit": "%"}, {"measurement": "mortality at 50 ppm", "setting": "[4]; 1 DAI", "value": 55, "unit": "%"}, {"measurement": "mortality at 50 ppm", "setting": "[4]; 2 DAI", "value": 72, "unit": "%"}, {"measurement": "mortality at 50 ppm", "setting": "[4]; 4 DAI", "value": 98, "unit": "%"}, {"measurement": "mortality at 50 ppm", "setting": "[4]; 7 DAI", "value": 100, "unit": "%"}, {"measurement": "mortality at 50 ppm", "setting": "[4]; 10 DAI", "value": 100, "unit": "%"}, {"measurement": "mortality at 200 ppm", "setting": "[4]; 1 DAI", "value": 55, "unit": "%"}, {"measurement": "mortality at 200 ppm", "setting": "[4]; 2 DAI", "value": 72, "unit": "%"}, {"measurement": "mortality at 200 ppm", "setting": "[4]; 4 DAI", "value": 80, "unit": "%"}, {"measurement": "mortality at 200 ppm", "setting": "[4]; 7 DAI", "value": 100, "unit": "%"}, {"measurement": "mortality at 200 ppm", "setting": "[4]; 10 DAI", "value": 100, "unit": "%"}, {"measurement": "mortality at 500 ppm", "setting": "[4]; 1 DAI", "value": 63, "unit": "%"}, {"measurement": "mortality at 500 ppm", "setting": "[4]; 2 DAI", "value": 82, "unit": "%"}, {"measurement": "mortality at 500 ppm", "setting": "[4]; 4 DAI", "value": 98, "unit": "%"}, {"measurement": "mortality at 500 ppm", "setting": "[4]; 7 DAI", "value": 100, "unit": "%"}, {"measurement": "mortality at 500 ppm", "setting": "[4]; 10 DAI", "value": 100, "unit": "%"}, {"measurement": "mortality at 1000 ppm", "setting": "[4]; 1 DAI", "value": 87, "unit": "%"}, {"measurement": "mortality at 1000 ppm", "setting": "[4]; 2 DAI", "value": 90, "unit": "%"}, {"measurement": "mortality at 1000 ppm", "setting": "[4]; 4 DAI", "value": 100, "unit": "%"}, {"measurement": "mortality at 1000 ppm", "setting": "[4]; 7 DAI", "value": 100, "unit": "%"}, {"measurement": "mortality at 1000 ppm", "setting": "[4]; 10 DAI", "value": 100, "unit": "%"}]}]}
